Reference: publication PMC9944328 (Nature Communications, 2023)
Like-named read-outs stand apart in the source and are kept apart here.

System: SSTR2 mutants
Test: NanoBiT β-arrestin 1 recruitment assay, HEK293 (SSTR2 mutants);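 on Best-fit values Bottom: percent of maximal wild-type response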;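 on Best-fit values Span: percent of maximal wild-type response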;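 on Best-fit values Top: percent of maximal wild-type response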;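 on Bottom (best-fit): percent of maximal wild-type response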;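 on Span (best-fit): percent of maximal wild-type response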;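 on Top (best-fit value): percent of maximal wild-type response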;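 on Top (best-fit): percent of maximal wild-type response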;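 on Top: percent of maximal wild-type response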
Type: cell-based, human
Design: Bottom / Span / Bottom (best-fit) / Span (best-fit) / Best-fit values Bottom / Best-fit values Span / Bottom (best-fit value) / Span (best-fit value):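 percent of maximal wild-type response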
Experimental: The NanoBiT β-arrestin 1 recruitment assays were carried out according to the method described previously. […] Human full-length SSTR wild-type and mutant vectors were C-terminally fused with a 15-amino acid flexible linker and the small fragment (SmBiT). HEK293 cells were seeded into six-well microplates at a density of 1.0 × 10^6 cells/well and cultured for 24 h at 37 °C with 5% CO2. After that, cells were co-transfected with pcDNA3.1+ vectors encoding SSTR wild-type or mutants and human β-arrestin 1. After transfecting for 24 h, the transfected cells were suspended and seeded into white 96-well plates, and then cultured at 37 °C overnight. After that the medium in each well was exchanged for 90 μl of 0.01% bovine serum albumin containing 20 μl of 50 μM coelenterazine h (Carbosynth) diluted in the HBSS assay buffer and incubated for 40 min at room temperature. Then, ligands diluted in the assay buffer was added to each well and the luminescence intensity was measured using the Synergy H1 microplate reader and detected at room temperature in a time period. All data presented are means of at least three independent experiments.

[1] = D295A-1 (run 1), β-arrestin1 recruitment
[2] = D295A-2 (run 2), β-arrestin1 recruitment
[3] = D295A-3 (run 3), β-arrestin1 recruitment
[4] = L290A-1 (run 1), β-arrestin1 recruitment
[5] = L290A-2 (run 2), β-arrestin1 recruitment
[6] = L290A-3 (run 3), β-arrestin1 recruitment
[7] = S279A-1 (run 1), β-arrestin1 recruitment
[8] = S279A-2 (run 2), β-arrestin1 recruitment
[9] = S279A-3 (run 3), β-arrestin1 recruitment
[10] = Y302A-1 (run 1), β-arrestin1 recruitment
[11] = Y302A-2 (run 2), β-arrestin1 recruitment
[12] = Y302A-3 (run 3), β-arrestin1 recruitment
[13] = best-fit value, I195A-1 (run 1)
[14] = best-fit value, I195A-2 (run 2)
[15] = best-fit value, I195A-3 (run 3)

## C[C@@H](O)[C@@H]1NC(=O)[C@H](CCCCN)NC(=O)[C@@H](Cc2c[nH]c3ccccc23)NC(=O)[C@H](Cc2ccccc2)NC(=O)[C@@H](NC(=O)[C@H](N)Cc2ccccc2)CSSC[C@@H](C(=O)N[C@H](CO)[C@@H](C)O)NC1=O [octreotide]
[1]
  Bottom (best-fit value): 0.2059
  LogEC50 (best-fit value): -6.975
  Span (best-fit value): 90.14
  Top (best-fit value): 90.34
D295A-1 (run 1), β-arrestin1 recruitment, read-out: EC50 (best-fit value)
  EC50: 106 nM
[2]
  Bottom (best-fit value): -0.553
  LogEC50 (best-fit value): -6.954
  Span (best-fit value): 94.35
  Top (best-fit value): 93.8
D295A-2 (run 2), β-arrestin1 recruitment, read-out: EC50 (best-fit value)
  EC50: 111 nM
[3]
  Bottom (best-fit value): -6.587
  LogEC50 (best-fit value): -6.025
  Span (best-fit value): 251.8
  Top (best-fit value): 245.2
D295A-3 (run 3), β-arrestin1 recruitment, read-out: EC50 (best-fit value)
  EC50: 944 nM
F127A-1
  Bottom (best-fit): -1.151
  LogEC50 (best-fit): -8.337
  Span (best-fit): 58.78
  Top (best-fit): 57.63
F127A-1, read-out: EC50 (best-fit)
  EC50: 4.6 nM
F127A-2
  Bottom (best-fit): -1.134
  LogEC50 (best-fit): -8.363
  Span (best-fit): 52.24
  Top (best-fit): 51.1
F127A-2, read-out: EC50 (best-fit)
  EC50: 4.33 nM
F127A-3
  Bottom (best-fit): -1.083
  LogEC50 (best-fit): -8.391
  Span (best-fit): 50.21
  Top (best-fit): 49.13
F127A-3, read-out: EC50 (best-fit)
  EC50: 4.07 nM
F208A-1
  Bottom (best-fit): -1.787
  LogEC50 (best-fit): -6.773
  Span (best-fit): 82.48
  Top (best-fit): 80.69
F208A-1, read-out: EC50 (best-fit)
  EC50: 169 nM
F208A-2
  Bottom (best-fit): -1.774
  LogEC50 (best-fit): -6.823
  Span (best-fit): 91.81
  Top (best-fit): 90.03
F208A-2, read-out: EC50 (best-fit)
  EC50: 150 nM
F208A-3
  Bottom (best-fit): -1.249
  LogEC50 (best-fit): -6.77
  Span (best-fit): 80.71
  Top (best-fit): 79.46
F208A-3, read-out: EC50 (best-fit)
  EC50: 170 nM
F294(7.35)A
  β-arrestin recruitment of mutant: nearly impaired the octreotide-induced β-arrestin recruitment
I284ECL3A and K291(7.32)A
  β-arrestin signal of mutants: reduced potency and efficacy of octreotide induced β-arrestin signal
[4]
  Bottom (best-fit value): 5.848
  LogEC50 (best-fit value): -8.723
  Span (best-fit value): 78.77
  Top (best-fit value): 84.62
L290A-1 (run 1), β-arrestin1 recruitment, read-out: EC50 (best-fit value)
  EC50: 1.89 nM
[5]
  Bottom (best-fit value): 5.656
  LogEC50 (best-fit value): -8.77
  Span (best-fit value): 81.03
  Top (best-fit value): 86.69
L290A-2 (run 2), β-arrestin1 recruitment, read-out: EC50 (best-fit value)
  EC50: 1.7 nM
[6]
  Bottom (best-fit value): -1.116
  LogEC50 (best-fit value): -8.203
  Span (best-fit value): 76.53
  Top (best-fit value): 75.41
L290A-3 (run 3), β-arrestin1 recruitment, read-out: EC50 (best-fit value)
  EC50: 6.27 nM
N276(6.55)A
  β-arrestin recruitment of mutant: nearly abolished the recruitment of β-arrestin
P220A-1
  Best-fit values Bottom: 0.1149
  Best-fit values LogEC50: -6.553
  Best-fit values Span: 34.49
  Best-fit values Top: 34.6
P220A-1, read-out: Best-fit values EC50
  EC50: 280 nM
P220A-2
  Best-fit values Bottom: -0.6221
  Best-fit values LogEC50: -7.989
  Best-fit values Span: 58.87
  Best-fit values Top: 58.25
P220A-2, read-out: Best-fit values EC50
  EC50: 10.3 nM
P220A-3
  Best-fit values Bottom: -0.6988
  Best-fit values LogEC50: -8.034
  Best-fit values Span: 50.86
  Best-fit values Top: 50.16
P220A-3, read-out: Best-fit values EC50
  EC50: 9.24 nM
[7]
  Bottom (best-fit value): -1.308
  LogEC50 (best-fit value): -8.149
  Span (best-fit value): 94.92
  Top (best-fit value): 93.61
S279A-1 (run 1), β-arrestin1 recruitment, read-out: EC50 (best-fit value)
  EC50: 7.09 nM
[8]
  Bottom (best-fit value): -2.227
  Span (best-fit value): 74.73
  Top (best-fit value): 72.5
S279A-2 (run 2), β-arrestin1 recruitment, read-out: EC50 (best-fit value)
  EC50: 21.4 nM
[9]
  Bottom (best-fit value): 0.9887
  LogEC50 (best-fit value): -6.436
  Span (best-fit value): 131.8
  Top (best-fit value): 132.8
S279A-3 (run 3), β-arrestin1 recruitment, read-out: EC50 (best-fit value)
  EC50: 366 nM
W269A-1
  Best-fit values Bottom: 0.3902
  Best-fit values LogEC50: -7.096
  Best-fit values Span: 27.42
  Best-fit values Top: 27.81
W269A-1, read-out: Best-fit values EC50
  EC50: 80.1 nM
W269A-2
  Best-fit values LogEC50: -7.281
  Best-fit values Span: 32.61
  Best-fit values Top: 36.93
W269A-2, read-out: Best-fit values EC50
  EC50: 52.3 nM
W269A-3
  Best-fit values Bottom: 3.687
  Best-fit values LogEC50: -7.475
  Best-fit values Span: 31.64
  Best-fit values Top: 35.33
W269A-3, read-out: Best-fit values EC50
  EC50: 33.5 nM
Y205A-1
  Bottom (best-fit): -3.221
  LogEC50 (best-fit): -7.699
  Span (best-fit): 139.2
  Top (best-fit): 135.9
Y205A-1, read-out: EC50 (best-fit)
  EC50: 20 nM
Y205A-2
  Bottom (best-fit): -1.321
  LogEC50 (best-fit): -8.57
  Span (best-fit): 93.02
  Top (best-fit): 91.7
Y205A-2, read-out: EC50 (best-fit)
  EC50: 2.69 nM
Y205A-3
  Bottom (best-fit): 0.3514
  LogEC50 (best-fit): -7.837
  Span (best-fit): 328.7
  Top (best-fit): 329.1
Y205A-3, read-out: EC50 (best-fit)
  EC50: 14.5 nM
Y302(7.43)A
  β-arrestin recruitment of mutant: slightly impaired
[10]
  Bottom (best-fit value): -0.3068
  LogEC50 (best-fit value): -8.733
  Span (best-fit value): 87.43
  Top (best-fit value): 87.12
Y302A-1 (run 1), β-arrestin1 recruitment, read-out: EC50 (best-fit value)
  EC50: 1.85 nM
[11]
  Bottom (best-fit value): 0.826
  LogEC50 (best-fit value): -8.763
  Span (best-fit value): 86.05
  Top (best-fit value): 86.87
Y302A-2 (run 2), β-arrestin1 recruitment, read-out: EC50 (best-fit value)
  EC50: 1.72 nM
[12]
  Bottom (best-fit value): 1.139
  LogEC50 (best-fit value): -8.739
  Span (best-fit value): 85.71
  Top (best-fit value): 86.85
Y302A-3 (run 3), β-arrestin1 recruitment, read-out: EC50 (best-fit value)
  EC50: 1.82 nM
[13]
  Bottom: -0.3262
  LogEC50: -7.224
  Span: 58.86
  Top: 58.54
best-fit value, I195A-1 (run 1), read-out: EC50
  EC50: 59.8 nM
[14]
  Bottom: -0.9813
  LogEC50: -7.334
  Span: 61.03
  Top: 60.04
best-fit value, I195A-2 (run 2), read-out: EC50
  EC50: 46.3 nM
[15]
  Bottom: -0.6923
  LogEC50: -7.245
  Span: 59.4
  Top: 58.71
best-fit value, I195A-3 (run 3), read-out: EC50
  EC50: 56.9 nM
best-fit value, L99A-1 (run 1)
  Bottom: 17.86
  LogEC50: -6.902
  Span: 95.94
  Top: 113.8
best-fit value, L99A-2 (run 2)
  Bottom: -2.171
  LogEC50: -7.606
  Span: 48.46
  Top: 46.29
best-fit value, L99A-2 (run 2), read-out: EC50
  EC50: 24.8 nM
best-fit value, L99A-3 (run 3)
  Bottom: -2.89
